Test results: patent publication US5061730A, “Carboxylic acid derivatives” (Fujisawa Pharmaceutical Co., Ltd., priority 1987, dated 1991)

Key:
Staphylococcus aureus 47 = experiment: Protective effect of carbapenem antibiotic combined with DHP-I inhibitor on mice infection; type: in vivo; conditions: Test compound No. 4 alone 10 mg/kg s.c., 1 hour after challenge; ICR mice
Method: The combined effect of DHP-I inhibitor of this invention with the carbapenem antibiotic, on mice infection was determined. ICR mice (female, 4 weeks old, 5 animals per group) were intraperitoneally injected with 4×10^8 Staphylococcus aureus 47 suspended in 5% mucin. Combined therapies were administrated subcutaneously 1 hour after challenge.

[1] = Urinary recovery of carbapenem antibiotics combined with DHP-I inhibitor; type: in vivo, ICR mice; conditions: for dose excreted: mouse, urine, iv, 1 mg/kg, antibiotic 1 mg/kg i.v., ICR mice
Method: The effect of the test compound No.1 on urinary recovery of carbapenem antibiotics simultaneously administrated was determined. Urinary recovery percent was calculated by measuring a quantity of antibiotics excreted in urine using bioassay, when antibiotics and DHP-I inhibitor were combined and intravenously injected to ICR mice (female, 4 weeks old, 4 animals per group).

[2] = biological target: T1, DHP-I (renal dipeptidase) (Oryctolagus cuniculus, UniProt P31429); experiment: Inhibition of DHP-I activity, rabbit DHP-I; type: biochemical; conditions: glycyldehydrophenylalanine substrate
T1 construct: Fresh kidney cortex was cut into pieces and homogenized in a Waring blender; from tissue; host or cells: kidney cortex (rabbit), n-butanol extraction, ammonium sulfate fraction 50-75%
T1 sequence (P31429 17-410): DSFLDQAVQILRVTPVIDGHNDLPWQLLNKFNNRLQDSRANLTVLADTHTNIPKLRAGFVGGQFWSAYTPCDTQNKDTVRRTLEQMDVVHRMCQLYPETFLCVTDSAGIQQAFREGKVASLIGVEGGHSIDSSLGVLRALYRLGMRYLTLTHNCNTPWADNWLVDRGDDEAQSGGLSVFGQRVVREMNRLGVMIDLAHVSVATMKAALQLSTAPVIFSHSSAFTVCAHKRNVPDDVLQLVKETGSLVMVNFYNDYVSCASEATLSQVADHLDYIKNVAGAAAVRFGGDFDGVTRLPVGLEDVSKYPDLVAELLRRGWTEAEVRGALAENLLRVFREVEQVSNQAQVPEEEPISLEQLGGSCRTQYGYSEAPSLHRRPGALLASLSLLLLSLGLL
Method: (§1) DHP-I (renal dipeptidase) were partially purified from several species of animals by B. J. Cambell (Methods in Enzymology, (1970) Vol. 19,722). Fresh kidney cortex was cut into pieces and homogenized in a Waring blender with an equal volume of 1/15M phosphate buffer (pH 8.0). The homogenate was filtrated on gauze to remove cellular debris. n-Butanol chilled to 0° C., was added to a concentration of 20% by volume with rapid stirring. The suspension was stirred with a magnetic stirrer for overnight at 4° C. to dissolve DHP-I. The resultant emulsion was then dialyzed against several changes of distilled water. To the dialyzate was added solid ammonium sulfate to 50% saturation at 0° C. The precipitate formed was collected by centrifugation at 4500 g for 1 hour and discarded. Solid ammonium sulfate was then added to the supernatant to 75% saturation, the suspension was centrifuged at 10,000 g for 1 hour. The sediment was dissolved in a small volume of distilled water and dialyzed against distilled water. […]
(§2) Activity of DHP-I was measured by mean of using the unsaturated dipeptide, glycyldehydrophenylalanine as substrate. […] Inhibitory effect of the test compound on DHP-I activity was measured. Inhibition percent, I(%), was calculated as followed, I(%)=(E-T)/Ex100, where E was DHP-I activity without test compound (Control), T was DHP-I activity with test compound.

[3] = biological target: T2, DHP-I (renal dipeptidase) (Sus scrofa, UniProt P22412); experiment: Inhibition of DHP-I activity, porcine DHP-I; type: biochemical; conditions: glycyldehydrophenylalanine substrate
T2 construct: Fresh kidney cortex was cut into pieces and homogenized in a Waring blender; from tissue; host or cells: kidney cortex (pig), n-butanol extraction, ammonium sulfate fraction 50-75%
T2 sequence (P22412 17-409): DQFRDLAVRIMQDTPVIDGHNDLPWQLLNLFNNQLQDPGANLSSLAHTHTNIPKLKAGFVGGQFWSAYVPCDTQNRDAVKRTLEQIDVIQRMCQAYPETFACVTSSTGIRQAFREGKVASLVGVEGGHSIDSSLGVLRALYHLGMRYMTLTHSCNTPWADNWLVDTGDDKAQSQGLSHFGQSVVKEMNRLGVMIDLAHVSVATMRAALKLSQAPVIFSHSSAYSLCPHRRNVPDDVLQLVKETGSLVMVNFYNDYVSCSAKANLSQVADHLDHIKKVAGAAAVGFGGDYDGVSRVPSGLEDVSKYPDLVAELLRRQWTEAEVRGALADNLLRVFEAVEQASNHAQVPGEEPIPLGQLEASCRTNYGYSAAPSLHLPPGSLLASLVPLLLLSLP
Method: as §1, §2

[4] = test system: carboxypeptidaseA (CPaseA); experiment: Effect on other metalloenzymes: carboxypeptidase A; type: biochemical; conditions: at 50,000 ng/ml; bovine pancreas enzyme
Method: (§3) DHP-I is a metalloenzyme with the zinc atom. To clarify the specific inhibitors activity of the test compound on DHP-I, the effect of the test compound on other metalloenzymes containing zinc, carboxypeptidaseA (CPaseA), leucineaminopeptidase (LAP), was determined.
Activity of CPaseA from bovine pancreas (Type II-DEF, made by Sigma Chemical Co.) was measured by mean of using carbobenzoxyglycyl-L-phenylalanine (made by Peptide Institute, Inc., Osaka, Japan) as substrate. Enzymatic hydrolysis was followed by observing the fall in optical density at 224 nm.

[5] = test system: leucineaminopeptidase (LAP); experiment: Effect on other metalloenzymes: leucineaminopeptidase; type: biochemical; conditions: at 50,000 ng/ml; porcine kidney microsomes enzyme
Method: as §3
Activity of LAP from porcine kidney microsomes (Type IV-S, made by Sigma Chemical Co.) was measured by . mean of using L-leucine-p-nitroanilide (made by Peptide Institute, Inc.) as substrate. Enzymatic hydrolysis was followed by observing the increase in optical density at 405 nm.

Staphylococcus aureus = experiment: Antimicrobial activity, paper disk diffusion method; type: cell-based; conditions: at 1 mg/ml
Method: (§4) Antimicrobial activity of the test compounds No.1 and No.2. was measured by paper disk diffusion method in a conventional manner.

Escherichia coli = experiment: as above; type: cell-based; conditions: at 1 mg/ml
Method: as §4

ICR mice = experiment: Acute toxicity, single intravenous injection; type: in vivo; conditions: 1 g/kg single intravenous, female, 4 weeks old
Method: The acute toxicity of the test compound No.1 was determined to ICR mice (female, 4 weeks old) by a single intravenous injection.

[6] = literature; cited from earlier work
Solubility = type: physicochemical; conditions: disodium salt
[7] = with Test compound No. 1, 0.5 mg/kg
[8] = with Test compound No. 1, 1 mg/kg
[9] = with Test compound No. 1, 2 mg/kg

SMILES: C[C@@H](O)[C@H]1C(=O)N2C(C(=O)O)=C(S[C@@H]3CN[C@H](COC(N)=O)C3)CC12 (some centres unmarked) [Test compound No. 4]
- Survived/Treated (Test mice) (Staphylococcus aureus 47): 0/5
- dose excreted ([1]; inhibitor: None): 29.3 ± 2.8%
- dose excreted [1, 7]: 51.4 ± 3.9%
- dose excreted [1, 8]: 57.8 ± 1.3%
- dose excreted [1, 9]: 71.9 ± 9.5%

SMILES: O=C(O)CCC(O)(C(=O)O)C(=O)NO (centres unmarked) [Test compound No. 2]
- IC50 [2]: 2410 nM
- IC50 [3]: 531 nM
- Inhibitory effect on CPaseA [4]: no inhibitory effect
- Inhibitory effect on LAP [5]: no inhibitory effect
- Antimicrobial activity (Staphylococcus aureus): no antimicrobial activity
- Antimicrobial activity (Escherichia coli): no antimicrobial activity

SMILES: CC(CC(=O)O)C(O)(C(=O)O)C(=O)NO (centres unmarked) [Test compound No. 1]
- IC50 [2]: 49.7 nM
- IC50 [3]: 4.97 nM
- Inhibitory effect on CPaseA [4]: no inhibitory effect
- Inhibitory effect on LAP [5]: no inhibitory effect
- Acute toxicity, toxic symptom (ICR mice): No toxic symptom was observed
- Effect on urinary recovery of the carbapenem antibiotics ([1]; effect of inhibitor on test compound No. 3 and 4 (1 mg/kg), in words): significantly increased urinary recovery
- Antimicrobial activity (Staphylococcus aureus): no antimicrobial activity
- Antimicrobial activity (Escherichia coli): no antimicrobial activity

SMILES: C[C@@H](O)[C@H]1C(=O)N2C(C(=O)O)=C(SCCNC=N)CC12 (some centres unmarked) [Test compound No. 3]
- dose excreted ([1]; inhibitor: None): 44.1 ± 0.6%
- dose excreted [1, 7]: 66.1 ± 3%
- dose excreted [1, 8]: 63.8 ± 7.3%
- dose excreted [1, 9]: 65.4 ± 9.5%

SMILES: CC1(C)C[C@@H]1C(=O)N/C(=C\CCCCSC[C@H](N)C(=O)O)C(=O)O [cilastatin]
- Urinary recoveries of the carbapenem antibiotics (e.g. imipenem) [6]: improving urinary recoveries

SMILES: CC(CC(=O)O)C(O)(C(=O)O)C(=O)NO (centres unmarked) [WS-1358A, 2-hydroxy-2-(hydroxycarbamoyl)-3-methylglutaric acid]
- Solubility in acetone (Solubility): Insoluble
- Solubility in chloroform (Solubility): Insoluble
- Solubility in ethanol (Solubility): Sparingly Soluble
- Solubility in ethyl acetate (Solubility): Insoluble
- Solubility in hexane (Solubility): Insoluble
- Solubility in methanol (Solubility): Sparingly Soluble
- Solubility in water (Solubility): Soluble

SMILES: O=C(O)CCC(O)(C(=O)O)C(=O)NO (centres unmarked) [WS-1358B]
- Solubility in acetone (Solubility): Insoluble
- Solubility in chloroform (Solubility): Insoluble
- Solubility in ethanol (Solubility): Sparingly Soluble
- Solubility in ethyl acetate (Solubility): Insoluble
- Solubility in hexane (Solubility): Insoluble
- Solubility in methanol (Solubility): Sparingly Soluble
- Solubility in water (Solubility): Soluble
